Several values for one entry are separate records, joined by “and”; a condition that tells them apart may be missing. Equal entries are not always repeated. Where two headings read alike, the source gives them in different places.
Tests used:
[1] = test system: HT-29 Human colorectal carcinoma; test: IC50 on tumor cell lines, MTT test, HT-29; format: cell-based; settings: HT-29, 3 days treatment, two separate experiments
Protocol: (§2) IC50 values are determined as follows: Tumour cells are incubated in the appropriate complete medium at 37° C. and under controlled atmosphere (5% CO2). Test compounds are tested at doses in the range of 100 nM and 100 μM. Cytotoxicity is determined by the MTT test, by measuring cell viability as the cell metabolic capacity to transform the tetrazolium salt of MTT in the blue formazan, by mitochondrial dehydrogenases; the blue colour is read at 570 nm with a spectrophotometer (Alley M C, Scudiero D A, Monks A, Hursey A L, Czerwinski M J, Fine D L, Abbott B J, Mayo J G, Shoemaker R H, Boyd M R. Feasibility of drug screening with panels of human tumor cell lines using a microculture tetrazolium assay. Cancer Res 48: 598-601, 1988. Mosmann T. Rapid colorimetric assay for cellular growth and survival: application to proliferation and cytotoxicity assays. […] Briefly, on day 0, in 96-well plates, 2-4000 cells/well/100 μl complete medium are plated. On day 1, test compounds are added at the test concentrations of 10^−7 M; 3*10^−7 M; 10^−6 M; 3*10^−6 M; 10^−5 M; 3*10^−5M; 10^−4 M. Each concentration is studied in triplicate. Cell viability, as determined by the MTT test is done on Day 4, after 3 days treatment. Each well is added with 10 μl/100 μl MTT (prepared previously by dissolving 5 mg/ml MTT in PBS, sterilized with filters at a cut-off of 0.22 mm and stored at 4° C.). Plates are put in an incubator at 37° C. for 4 hrs, then medium is eliminated and each well is added with 200 μl DMSO (Sigma Chemical Co., USA). Plates are read with a spectrophotometer (Spectra count Packard Bell, Meriden, Conn., USA) at 570 nm wave length. IC50 is calculated with the GraphPad Prism4.

[2] = test system: A2780/CDDP Human ovarian carcinoma resistant to Cistplatin; test: IC50 on tumor cell lines, MTT test, A2780/CDDP; format: cell-based; settings: for IC50: read-out: IC50 values A2780/CDDP
Protocol: Tumor cell lines derived from human and mouse turnours listed below were stabilised for in vitro propagation.
IC50 values are determined as follows: Tumour cells are incubated in the appropriate complete medium at 37° C. and under controlled atmosphere (5% CO2). Test compounds are tested at doses in the range of 100 nM and 100 μM. Cytotoxicity is determined by the MTT test, by measuring cell viability as the cell metabolic capacity to transform the tetrazolium salt of MTT in the blue formazan, by mitochondrial dehydrogenases; the blue colour is read at 570 nm with a spectrophotometer (Alley M C, Scudiero D A, Monks A, Hursey A L, Czerwinski M J, Fine D L, Abbott B J, Mayo J G, Shoemaker R H, Boyd M R. Feasibility of drug screening with panels of human tumor cell lines using a microculture tetrazolium assay. Cancer Res 48: 598-601, 1988. Mosmann T. Rapid colorimetric assay for cellular growth and survival: application to proliferation and cytotoxicity assays. J Immunol Methods 65: 55-63, 1983). Briefly, on day 0, in 96-well plates, 2-4000 cells/well/100 μl complete medium are plated. On day 1, test compounds are added at the test concentrations of 10^−7 M; 3*10^−7 M; 10^−6 M; 3*10^−6 M; 10^−5 M; 3*10^−5M; 10^−4 M. Each concentration is studied in triplicate. Cell viability, as determined by the MTT test is done on Day 4, after 3 days treatment. Each well is added with 10 μl/100 μl MTT (prepared previously by dissolving 5 mg/ml MTT in PBS, sterilized with filters at a cut-off of […] and stored at 4° C.). Plates are put in an incubator at 37° C. for 4 hrs, then medium is eliminated and each well is added with 200 μl DMSO (Sigma Chemical Co., USA). Plates are read with a spectrophotometer (Spectra count Packard Bell, Meriden, Conn., USA) at 570 nm wave length. IC50 is calculated with the GraphPad Prism4.
The reported values are the most representative of two separate experiments.

[3] = test system: TLX5 Mouse lymphona; test: IC50 on tumor cell lines, MTT test, TLX5; format: cell-based; settings: TLX5, 3 days treatment, two separate experiments
Protocol: as §2

[4] = test system: A2780 Human ovarian carcinoma; test: IC50 on tumor cell lines, MTT test, A2780; format: cell-based; settings: A2780, 3 days treatment, two separate experiments
Protocol: as §2

[5] = test system: MIA-PaCa-2 Human pancreatic cancer; test: IC50 on tumor cell lines, MTT test, MIA PaCa-2; format: cell-based; settings: MIA PaCa-2, 3 days treatment, two separate experiments
Protocol: as §2

[6] = test system: H460M Human lung carcinoma/metastatic; test: IC50 on tumor cell lines, MTT test, H460M; format: cell-based; settings: 3 days treatment, two separate experiments
Protocol: as §2

[7] = test system: Glutathione-S-Transferase; test: Inhibition of Glutathione-S-Transferase activity in A549 cell lysates (glutathione-CDNB assay); format: biochemical, human; settings: A549 lung carcinoma cell lysates exposed to 100 μM drug solution for 90 mins
Protocol: Human A549 lung carcinoma cells, known to express high levels of Glutathione-S-Transferase, were routinely grown in flasks with DMEM medium containing 4.5 g/l glucose, 10% foetal calf serum (FCS) and antibiotics at 37° C. and 6% CO2. When the cells are confluent, they are trypsinised and concentrated in a centrifuge at 4° C. The cells were then diluted in phosphate-buffer saline (PBS) containing protease inhibitor cocktail (final concentration of 1 μg/ml) and homogenised by repeatedly freezing in liquid nitrogen and thawing (4 cycles). The homogenised cell samples were centrifuged at 4° C. and the supernatant, which is the cell lysates, was separated. The cell lysates are stored at −56° C.
The Ru compounds are weighed, and dissolved in DMSO to 100 mM. […] The cell lysates were exposed to the drug solutions for 90 mins. Control, containing the cell lysates with water/0.1% DMSO was also prepared.
The GST activity in the treated cell lysates was determined using the glutathione-CDNB (1-chloro-2,4-dinitrobenzene) assay. Glutathione and CDNB were dissolved in deionised water and ethanol respectively to make up a 100 mM solutions. A developing solution, containing 50 mM phosphate buffer solution (pH 6.5), was prepared and was added 1% v/v, the 100 mM glutathione and 100 mM CDNB solutions such that their final concentrations are both 1 mM. The developing solution was added to a 96-well plate at 200 μl per well, followed by the treated cell lysates at 2 μl per well. The absorbance at 340 nm was monitored continuously for 5 mins at 15 s intervals. The average slope of the change in absorbance was determined as a fraction of the control as the percentage of residual GST activity.

[8] = test system: A549 lung carcinoma cell line; test: Cell growth proliferation inhibition, MTT assay, A549; format: cell-based, human; settings: A549 cells, 72 hours exposure
Protocol: (§1) When the cell are confluent, they are trypsinised and seeded in 48-well plates as monolayers for 24 h. […] The media is removed from the cell plates are the drug solutions applied in triplicate. A set of control cells, with media containing 1.0% DMSO, was left on each plate. The cells were exposed to the drugs for 72 hours. For […], (8) and (9), the Ru compounds are weighed, and dissolved directly in medium to 1600 μM, then serially diluted to make up 800 μ[…] solutions. Cell viability was determined using the standard MTT assay protocol, which allows the quantification of the mitochondrial activity in metabolically active cells. MTT (final concentration 0.2 mg/ml) was added to the cells for 2 h, then the culture medium was aspirated and the violet formazan precipitate dissolved in 0.1 N HCl in 2-propanol. The optical density, which is directly proportional to number of surviving cells, was quantified at 540 nm using a multiwell plate reader and the fraction of surviving cells was calculated from the absorbance of untreated control cells. Using the above protocol, the compounds were tested against human T47D and MCF-7 breast carcinoma, A549 lung carcinoma and HT-29 colon carcinoma cell lines (see FIG. 7).

[9] = test system: MCF-7 breast carcinoma cell line; test: Cell growth proliferation inhibition, MTT assay, MCF7; format: cell-based, human; settings: MCF7 cells, 72 hours exposure
Protocol: as §1

[10] = test system: HT-29 colon carcinoma cell line; test: Cell growth proliferation inhibition, MTT assay, HT29; format: cell-based, human; settings: 72 hours exposure
Protocol: as §1

[11] = test system: T47D breast carcinoma cell line; test: Cell growth proliferation inhibition, MTT assay, T47D; format: cell-based, human; settings: T47D cells, 72 hours exposure
Protocol: as §1

[12] = test system: TLX5 lymphona cells; test: Survival time in an in vivo TLX5 lymphoma model; design: species or system CBA brown-grey inbred mice; settings: for % increase vs Controls (mean survival time) / Mean survival time (days ± SD): TLX5 cells i.p. day 0 in CBA mice, treatment i.p. at day 3, Compound 3 at 200 mg/kg, Cisplatin 8 mg/kg; for Activity in vivo (in words): TLX5 lymphoma in mice, i.p., compound 3 given as suspension in carboxymethylcellulose
Protocol: Tumour cells (TLX5, see above in Example 8) were derived from mouse tumours and stabilised for in vivo propagation. For the animal study, TLX5 lymphona cells were injected in the peritoneal cavity of CBA brown-grey inbred mice (Harlan-Nossan, San Giovanni al Natisone, Udine, Italy) at day 0. Test compounds were applied at day 3 at various doses, also by the intraperitoneal route, with each drug (test compound or reference drug) diluted in appropriate physiological solution and injected in a volume of 0.1 ml/10 g body weight.

[13] = A2780/CDDP (Cisplatin-resistant), 3 days treatment, MTT test, two separate experiments

Row | Molecule | IC50 [1] [µM] | IC50 [2, 13] [µM] | IC50 [3] [µM] | IC50 [4] [µM] | IC50 [5] [µM] | IC50 [6] [µM] | Residual GST activity (% control) [7] [% control] | IC50 [8] [µM] | IC50 [9] [µM] | IC50 ([10]; HT29 cells) [µM] | IC50 [11] [µM] | other results
1 | RAPTA-T | > 100 | > 100 | 64.1 to 92.9 | > 100 | > 100 | > 100 |  |  |  |  |  | 
2 | (Ethacrynic-η^6:benzylamide)Ru(PTA)Cl2 [Compound 3] | 2.3 to 3.8 | 4.6 to 5.3 | 0.8 to 3 | 7.1 to 9.5 | 14.7 to 20.1 | 2.5 to 3.8 | 63.57 ± 2.0 | 32.3 | 19.9 | 50.7 | 2.91 | Activity against the Cisplatin-resistant cell line A2780/CDDP (in words) ([2]; A2780/CDDP, MTT test): active; % increase vs Controls (mean survival time) [12]: 22%; Mean survival time (days ± SD) [12]: 12.2 days and 12.2 ± 1.79 days; Activity in vivo (in words) [12]: active in vivo
3 | C1N2CN3CN1CP(C2)C3.C=C(CC)C(=O)c1ccc(OCC(=O)OCCc2ccccc2)c(Cl)c1Cl.[Cl][Ru][Cl] [Compound 4, (Ethacrynic-η^6:phenylethanoate)Ru(PTA)Cl2] | 30 to 32.6 | 36.7 to 38.7 | 3.6 to 4.3 | ~30 | 81.5 to 92.7 | 29.1 to 31.5 | 42.77 ± 13.9 | 66.7 | 105 | 106 | 6.28 | Activity against the Cisplatin-resistant cell line A2780/CDDP (in words) ([2]; A2780/CDDP, MTT test): active
4 | Cc1ccc(C(C)C)cc1.[Cl][Ru]([Cl])[PH]12CN3CN(CN(C3)C1)C2 [(η^6-cymene)Ru(PTA)Cl2, reference compound] |  |  |  |  |  |  |  | 1030 | > 1600 | 436 | 1060 | 
5 | (η^6 cymene)Ru(PTA)(C2O4) [Compound 8] |  |  |  |  |  |  |  | 1130 | > 1600 | 267 | 1170 | 
6 | N.N.[Cl][Pt][Cl] [Cisplatin] | 4.9 to 32.6 | > 100 | 0.02 to 0.2 | 10.5 to 11.8 | 10.6 to 12.9 | 1.3 to 3 |  |  |  |  |  | % increase vs Controls (mean survival time) [12]: 18%; Mean survival time (days ± SD) [12]: 11.8 ± 1.79 days; Activity in vivo (in words) [12]: effective
7 | C=C(CC)C(=O)c1ccc(OCC(=O)O)c(Cl)c1Cl [Ethacrynic acid, reference compound] |  |  |  |  |  |  |  |  |  |  |  | IC50 ([1]; Homo sapiens, 72 h): 35.2 to 44 µM; IC50 ([8]; Homo sapiens): 50.7 µM; IC50 ([9]; Homo sapiens): 66 µM; IC50 ([2]; Homo sapiens, A2780/CDDP, 72 h): 84.3 to 97.6 µM; IC50 ([10]; Homo sapiens, HT-29, HT29 cells): 73.5 µM; IC50 ([3]; Mus musculus, TLX-5, 72 h): 1.3 to 1.8 µM; IC50 ([4]; Homo sapiens, 72 h): 91.1 to 94.8 µM; IC50 ([5]; Homo sapiens, 72 h): > 100 µM; IC50 ([11]; Homo sapiens): 7.73 µM; IC50 ([6]; Homo sapiens, 72 h): 58.1 to 63.3 µM
8 | (η^6-cymene)RuCl2(ethacrynic-propylamide-imidazole) [Compound 6] |  |  |  |  |  |  | 23.70 ± 10.7 | 34 | 10.7 | 39.1 | 4.8 | 
9 | [(η^6-cymene)RuCl(PTA)(imidazolium-ethacrynic aide)]BF4^− [Compound 7] |  |  |  |  |  |  | 62.58 ± 8.8 | 65.1 | 19.9 | 64.2 | 5.97 | 
10 | (η^6-cymene)Ru(PTA)(C6H6O4) [Compound 9] |  |  |  |  |  |  |  | 1570 | > 1600 | 265 | 1090 | 
